How the values were obtained:
Assay in all cases: Kinase profiling in a biochemical assay panel (mobility shift assays and ELISA), %-inhibition at 1 μM; selectivity entropy
[1] = target: panel of more than 300 wild-type and mutant kinases (313 kinase panel) (Homo sapiens, UniProt P17612)
[2] = target: T1, panel of more than 300 wild-type and mutant kinases (313 kinase panel) (Homo sapiens, UniProt P21709)
T1 sequence (P21709 26-976): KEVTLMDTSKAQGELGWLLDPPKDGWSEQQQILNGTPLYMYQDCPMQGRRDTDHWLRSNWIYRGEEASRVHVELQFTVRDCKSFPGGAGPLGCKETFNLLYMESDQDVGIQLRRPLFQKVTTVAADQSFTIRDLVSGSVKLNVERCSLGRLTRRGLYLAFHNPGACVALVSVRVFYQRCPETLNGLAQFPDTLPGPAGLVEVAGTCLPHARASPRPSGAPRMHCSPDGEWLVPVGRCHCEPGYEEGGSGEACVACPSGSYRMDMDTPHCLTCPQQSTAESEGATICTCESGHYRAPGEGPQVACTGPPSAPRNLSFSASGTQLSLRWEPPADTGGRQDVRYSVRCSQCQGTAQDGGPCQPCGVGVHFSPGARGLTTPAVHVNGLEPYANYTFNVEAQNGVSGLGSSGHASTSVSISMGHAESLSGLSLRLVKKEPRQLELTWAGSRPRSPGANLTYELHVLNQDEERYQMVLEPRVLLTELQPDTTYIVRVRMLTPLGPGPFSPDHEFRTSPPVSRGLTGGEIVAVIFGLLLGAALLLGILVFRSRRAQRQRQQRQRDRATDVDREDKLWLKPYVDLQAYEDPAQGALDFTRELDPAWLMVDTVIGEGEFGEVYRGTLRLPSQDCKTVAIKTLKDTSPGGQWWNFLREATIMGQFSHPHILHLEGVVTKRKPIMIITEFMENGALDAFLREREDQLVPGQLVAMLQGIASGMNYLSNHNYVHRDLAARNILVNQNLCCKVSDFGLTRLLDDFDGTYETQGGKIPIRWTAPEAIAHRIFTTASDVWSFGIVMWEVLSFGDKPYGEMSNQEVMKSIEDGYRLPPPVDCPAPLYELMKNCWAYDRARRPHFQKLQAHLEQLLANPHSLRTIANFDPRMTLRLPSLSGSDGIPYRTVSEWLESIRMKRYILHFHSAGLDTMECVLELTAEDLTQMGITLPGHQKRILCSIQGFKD

[3] = target: T2, panel of more than 300 wild-type and mutant kinases (313 kinase panel) (Homo sapiens, UniProt P29320)
T2 sequence (P29320 21-983): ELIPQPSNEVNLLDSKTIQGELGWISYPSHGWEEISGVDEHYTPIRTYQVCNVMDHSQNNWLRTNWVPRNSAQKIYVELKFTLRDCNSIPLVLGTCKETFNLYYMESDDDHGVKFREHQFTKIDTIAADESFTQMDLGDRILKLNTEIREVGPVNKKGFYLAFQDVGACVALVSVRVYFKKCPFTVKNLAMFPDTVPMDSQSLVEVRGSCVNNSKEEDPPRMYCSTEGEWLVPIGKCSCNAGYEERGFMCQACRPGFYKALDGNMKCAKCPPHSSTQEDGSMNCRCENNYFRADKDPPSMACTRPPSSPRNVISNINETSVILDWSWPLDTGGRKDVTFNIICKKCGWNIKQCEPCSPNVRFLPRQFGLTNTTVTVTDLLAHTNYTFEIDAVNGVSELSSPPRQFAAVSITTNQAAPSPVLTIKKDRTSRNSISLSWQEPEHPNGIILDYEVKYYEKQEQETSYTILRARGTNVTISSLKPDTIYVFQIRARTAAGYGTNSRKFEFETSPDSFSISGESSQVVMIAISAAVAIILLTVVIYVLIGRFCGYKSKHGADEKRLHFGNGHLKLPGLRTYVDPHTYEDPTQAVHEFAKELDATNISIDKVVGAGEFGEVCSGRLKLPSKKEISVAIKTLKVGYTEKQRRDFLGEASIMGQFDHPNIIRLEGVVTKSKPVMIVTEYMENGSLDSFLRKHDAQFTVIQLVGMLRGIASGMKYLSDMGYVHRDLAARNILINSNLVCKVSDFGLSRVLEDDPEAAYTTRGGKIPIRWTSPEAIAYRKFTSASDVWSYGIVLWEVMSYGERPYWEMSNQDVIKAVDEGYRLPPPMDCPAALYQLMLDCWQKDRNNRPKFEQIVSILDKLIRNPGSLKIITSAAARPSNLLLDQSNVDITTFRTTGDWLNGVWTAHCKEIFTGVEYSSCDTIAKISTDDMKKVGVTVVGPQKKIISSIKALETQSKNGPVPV

[4] = target: panel of more than 300 wild-type and mutant kinases (313 kinase panel) (Homo sapiens, UniProt P30291)
Chain of panel of more than 300 wild-type and mutant kinases (313 kinase panel) (Homo sapiens, UniProt P30291) (P30291 whole entry, change not shown): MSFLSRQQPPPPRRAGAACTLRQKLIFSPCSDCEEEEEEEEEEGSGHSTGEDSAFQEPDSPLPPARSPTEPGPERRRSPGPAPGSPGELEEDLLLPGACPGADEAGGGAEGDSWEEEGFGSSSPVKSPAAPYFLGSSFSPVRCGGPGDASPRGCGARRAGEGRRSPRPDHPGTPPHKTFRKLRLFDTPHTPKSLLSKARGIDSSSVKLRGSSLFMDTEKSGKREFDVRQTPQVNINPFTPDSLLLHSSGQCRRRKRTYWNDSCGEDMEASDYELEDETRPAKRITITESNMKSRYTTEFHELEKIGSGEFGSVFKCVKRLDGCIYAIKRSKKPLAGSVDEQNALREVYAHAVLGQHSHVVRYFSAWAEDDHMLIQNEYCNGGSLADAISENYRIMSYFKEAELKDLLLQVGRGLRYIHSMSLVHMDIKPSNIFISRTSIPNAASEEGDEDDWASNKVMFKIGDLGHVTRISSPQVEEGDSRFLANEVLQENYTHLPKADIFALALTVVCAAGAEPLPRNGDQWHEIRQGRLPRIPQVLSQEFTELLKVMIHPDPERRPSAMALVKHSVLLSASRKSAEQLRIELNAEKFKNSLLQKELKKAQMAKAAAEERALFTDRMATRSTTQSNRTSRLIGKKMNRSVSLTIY

[5] = target: T3, panel of more than 300 wild-type and mutant kinases (313 kinase panel) (Homo sapiens, UniProt Q08881)
T3 sequence (Q08881 1-620): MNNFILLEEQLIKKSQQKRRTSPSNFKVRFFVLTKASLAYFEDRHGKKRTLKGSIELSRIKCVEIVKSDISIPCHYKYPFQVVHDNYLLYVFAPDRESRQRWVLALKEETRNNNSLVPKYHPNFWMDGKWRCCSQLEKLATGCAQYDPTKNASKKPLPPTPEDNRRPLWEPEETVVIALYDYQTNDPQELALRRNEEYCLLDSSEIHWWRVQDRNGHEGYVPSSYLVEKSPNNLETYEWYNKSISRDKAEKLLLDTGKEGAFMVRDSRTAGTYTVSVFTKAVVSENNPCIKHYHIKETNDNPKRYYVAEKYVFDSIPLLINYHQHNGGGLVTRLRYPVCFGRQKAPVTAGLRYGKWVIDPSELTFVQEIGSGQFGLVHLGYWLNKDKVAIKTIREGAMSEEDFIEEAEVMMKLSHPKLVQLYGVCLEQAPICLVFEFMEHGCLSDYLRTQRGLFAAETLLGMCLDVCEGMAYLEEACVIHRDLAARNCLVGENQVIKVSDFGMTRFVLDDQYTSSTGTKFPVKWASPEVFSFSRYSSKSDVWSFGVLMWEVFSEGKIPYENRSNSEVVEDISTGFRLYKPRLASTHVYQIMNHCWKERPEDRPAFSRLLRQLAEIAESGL

COc1cc(Nc2c(C#N)cnc3cc(OCCCN4CCN(C)CC4)c(OC)cc23)c(Cl)cc1Cl [bosutinib]
%-inhibition of PKACα ([1]; kinase PKACα, 1 μM): 58% | %-inhibition of EPHA1 ([2]; kinase EPHA1, compound at 1 μM): 3% | %-inhibition of EPHA3 ([3]; kinase EPHA3, compound at 1 μM): 67% | %-inhibition of WEE1 ([4]; kinase WEE1, compound at 1 μM): 98% | %-inhibition of ITK ([5]; kinase ITK, compound at 1 μM): 13%

COc1cc2nccc(Oc3ccc(NC(=O)C4(C(=O)Nc5ccc(F)cc5)CC4)cc3)c2cc1OC [cabozantinib]
%-inhibition of PKACα ([1]; kinase PKACα, 1 μM): -4.67% | %-inhibition of EPHA1 ([2]; kinase EPHA1, compound at 1 μM): 84% | %-inhibition of EPHA3 ([3]; kinase EPHA3, compound at 1 μM): 97% | %-inhibition of WEE1 ([4]; kinase WEE1, compound at 1 μM): 5.45% | %-inhibition of ITK ([5]; kinase ITK, compound at 1 μM): 16%

C[C@@H](Oc1cc(-c2cnn(C3CCNCC3)c2)cnc1N)c1c(Cl)ccc(F)c1Cl [crizotinib]
%-inhibition of PKACα ([1]; kinase PKACα, 1 μM): -6% | %-inhibition of EPHA1 ([2]; kinase EPHA1, compound at 1 μM): 97% | %-inhibition of EPHA3 ([3]; kinase EPHA3, compound at 1 μM): 19% | %-inhibition of WEE1 ([4]; kinase WEE1, compound at 1 μM): 12% | %-inhibition of ITK ([5]; kinase ITK, compound at 1 μM): 63%

CC(C)(C)c1nc(-c2cccc(NS(=O)(=O)c3c(F)cccc3F)c2F)c(-c2ccnc(N)n2)s1 [dabrafenib]
%-inhibition of EPHA1 ([2]; kinase EPHA1, compound at 1 μM): 44% | %-inhibition of EPHA3 ([3]; kinase EPHA3, compound at 1 μM): 18% | %-inhibition of WEE1 ([4]; kinase WEE1, compound at 1 μM): 0.651% | %-inhibition of ITK ([5]; kinase ITK, compound at 1 μM): 49%

Cc1nc(Nc2ncc(C(=O)Nc3c(C)cccc3Cl)s2)cc(N2CCN(CCO)CC2)n1 [dasatinib]
%-inhibition of PKACα ([1]; kinase PKACα, 1 μM): 0.736% | %-inhibition of EPHA1 ([2]; kinase EPHA1, compound at 1 μM): 101%

C#Cc1cccc(Nc2ncnc3cc(OCCOC)c(OCCOC)cc23)c1 [erlotinib]
%-inhibition of PKACα ([1]; 1 µM): 4.34% | %-inhibition of EPHA1 ([2]; 1 µM): 28% | %-inhibition of EPHA3 ([3]; 1 µM): 15% | %-inhibition of WEE1 ([4]; 1 µM): 20% | %-inhibition of ITK ([5]; 1 µM): 6.51%

CO[C@H]1C[C@@H]2CC[C@@H](C)[C@@](O)(O2)C(=O)C(=O)N2CCCC[C@H]2C(=O)O[C@H]([C@H](C)C[C@@H]2CC[C@@H](OCCO)[C@H](OC)C2)CC(=O)[C@H](C)/C=C(\C)[C@@H](O)[C@@H](OC)C(=O)[C@H](C)C[C@H](C)/C=C/C=C/C=C/1C [everolimus]
%-inhibition of PKACα ([1]; kinase PKACα, 1 μM): -6% | %-inhibition of EPHA1 ([2]; kinase EPHA1, compound at 1 μM): -10% | %-inhibition of EPHA3 ([3]; kinase EPHA3, compound at 1 μM): -20% | %-inhibition of WEE1 ([4]; kinase WEE1, compound at 1 μM): 7% | %-inhibition of ITK ([5]; kinase ITK, compound at 1 μM): -3.61%

O=S(=O)(c1cccc2cnccc12)N1CCCNCC1 [fasudil]
%-inhibition of EPHA1 ([2]; kinase EPHA1, compound at 1 μM): 0.43% | %-inhibition of EPHA3 ([3]; kinase EPHA3, compound at 1 μM): -7% | %-inhibition of WEE1 ([4]; kinase WEE1, compound at 1 μM): -0.258% | %-inhibition of ITK ([5]; kinase ITK, compound at 1 μM): -9%

CS(=O)(=O)CCNCc1ccc(-c2ccc3ncnc(Nc4ccc(OCc5cccc(F)c5)c(Cl)c4)c3c2)o1 [lapatinib]
%-inhibition of PKACα ([1]; kinase PKACα, 1 μM): 0.663% | %-inhibition of EPHA1 ([2]; kinase EPHA1, compound at 1 μM): 6% | %-inhibition of EPHA3 ([3]; 1 µM): 0.372% | %-inhibition of WEE1 ([4]; kinase WEE1, compound at 1 μM): 8% | %-inhibition of ITK ([5]; kinase ITK, compound at 1 μM): -1.89%

Cc1cn(-c2cc(NC(=O)c3ccc(C)c(Nc4nccc(-c5cccnc5)n4)c3)cc(C(F)(F)F)c2)cn1 [nilotinib]
%-inhibition of PKACα ([1]; 1 µM): 3.31% | %-inhibition of EPHA1 ([2]; kinase EPHA1, compound at 1 μM): 61% | %-inhibition of EPHA3 ([3]; kinase EPHA3, compound at 1 μM): 87% | %-inhibition of WEE1 ([4]; 1 µM): 3.74% | %-inhibition of ITK ([5]; kinase ITK, compound at 1 μM): -0.451%

Cc1ccc(Nc2nccc(N(C)c3ccc4c(C)n(C)nc4c3)n2)cc1S(N)(=O)=O [pazopanib]
%-inhibition of PKACα ([1]; kinase PKACα, 1 μM): 2% | %-inhibition of EPHA1 ([2]; kinase EPHA1, compound at 1 μM): 54% | %-inhibition of EPHA3 ([3]; kinase EPHA3, compound at 1 μM): 10% | %-inhibition of WEE1 ([4]; kinase WEE1, compound at 1 μM): 1% | %-inhibition of ITK ([5]; kinase ITK, compound at 1 μM): 28%

Cc1ccc(C(=O)Nc2ccc(CN3CCN(C)CC3)c(C(F)(F)F)c2)cc1C#Cc1cnc2cccnn12 [ponatinib]
%-inhibition of EPHA1 ([2]; kinase EPHA1, compound at 1 μM): 97% | %-inhibition of EPHA3 ([3]; kinase EPHA3, compound at 1 μM): 102% | %-inhibition of WEE1 ([4]; kinase WEE1, compound at 1 μM): 2.14% | %-inhibition of ITK ([5]; kinase ITK, compound at 1 μM): 86%
